Assay results from US20260216112A1, “ACETYLCYSTEINE-STABILIZED GOLD NANOCLUSTERS FOR ACUTE KIDNEY INJURY, AND PREPARATION METHOD AND APPLICATION THEREOF” (priority 2021, published 2026).

Assays:
[1] = test system: IL-6; test: in vitro anti-inflammatory study, IL-6 ELISA; type: cell-based; conditions: LPS 400 ng/ml stimulation, RAW264.7 macrophage supernatant, FIG. 10
Source text: (§1) Embodiment 3: Au NCs-NAC cytotoxicity and protection of kidney cells by eliminating various reactive oxygen species/reactive nitrogen species, and the standard MTT method was used to evaluate the effect of Au NCs-NAC on the survival rate of 293T renal embryonic cells. Furthermore, ELISA (enzyme-linked immunosorbent assay) kits for TNF-α and IL-6 are adopted to evaluate the levels of inflammatory factors in the cells.
(§2) For in vitro anti-inflammatory studies, both macrophages and 293T renal embryonic cells were seeded into 96-well plates. Then, 293T renal embryonic cells were treated with 400 ng/ml lipopolysaccharide (LPS) for 1 h. Then, the supernatant of 293T renal embryonic cell culture was transferred to a 96-well plate to culture RAW264.7 macrophages overnight. Finally, the TNF-α/IL-6 ELISA kit was used to detect the concentrations of TNF-α and IL-6 in the RAW264.7 macrophage supernatant.

[2] = test system: glycerol-induced acute renal failure mice; test: glycerol-induced acute renal failure mice, serum creatinine and blood urea nitrogen; type: in vivo; conditions: 4 mg/kg injected 2 hours after glycerol, serum at 24 hours, versus phosphate buffer
Procedure: All experimental operations were performed in accordance with the animal use and care system approved by the Clinical Center Animal Care and Use Committee. Female athymic mice (six weeks, 20-25 g) were injected with 8 mL/kg 50% glycerol solution intramuscularly into the hind legs to establish a mice model of acute renal failure. After 2 hours, the small molecule drug acetylcysteine or Au NCs-NAC was injected.
Mice were randomly divided into 5 groups: (1) healthy mice injected with phosphate buffer; (2) healthy mice injected with Au NCs-NAC; (3) glycerol-induced acute renal failure mice injected with phosphate buffer; (4) glycerol-induced acute renal failure mice injected with Au NCs-NAC; (5) glycerol-induced acute renal failure mice injected with acetylcysteine in the same dose of Au NCs-NAC. Healthy mice and mice with glycerol-induced acute renal failure were euthanized 24 hours later. The blood of the mice was centrifuged to obtain serum, and the creatinine and blood urea nitrogen contents were measured. The phosphate buffer used for injection was 100 μL, the injection dose of Au NCs-NAC was 4 mg/kg, and the injection dose of acetylcysteine was 4 mg/kg.

[3] = superoxide anion removal, SOD assay kit; type: biochemical; conditions: concentration of 100 μg/mL; FIG. 5
Procedure: The efficiency of Au NCs-NAC in removing superoxide anions at different concentrations ([…]) was determined using the SOD assay kit (Sigma-Aldrich, USA). The test was conducted according to the instructions provided by the manufacture.

[4] = test system: TNF-α; test: in vitro anti-inflammatory study, TNF-α ELISA; type: cell-based; conditions: LPS 400 ng/ml stimulation, RAW264.7 macrophage supernatant, FIG. 9
Source text: as §1, §2

[5] = hydroxyl radical antioxidant capacity (HORAC) kit; type: biochemical; conditions: concentration of 100 μg/mL; FIG. 4
[6] = ABTS free radical cation discoloration method; type: biochemical; conditions: concentration of […] (so in the source); absorbance at 734 nm; FIG. 6
Procedure: The test for eliminating ABTS (2,2′-azino-bis(3-ethylbenzothiazoline-6-sulfonic acid)) free radicals by Au NCs-NAC.
The free radicals eliminating ability of Au NCs-NAC was tested using the ABTS free radical cation discoloration method. ABTS (7 mM) was dissolved in water, and 2.45 mM potassium persulfate was added to react for 12 hours to produce ABTS free radical cations (⋅ABTS+). Then, the absorbance values of the pure ⋅ABTS+solution (AB) and the mixed solution of different concentrations (12.5-100 μg/mL) of Au NCs-NAC and ⋅ABTS+ were measured at 734 nm. The formula for calculating ABTS eliminating efficiency is [(AB AP)/AB]*100. All measurements were performed in triplicate.

Structure (SMILES): CC(=O)N[C@@H](CS)C(=O)O [acetylcysteine]
- production of inflammatory factor IL-6 [1]: not able to achieve the same
- serum blood urea nitrogen level ([2]; FIG. 11): cannot effectively reduce
- serum creatinine level ([2]; FIG. 12): cannot effectively reduce
- superoxide anions eliminated [3]: 6%
- production of inflammatory factor TNF-α [4]: not able to achieve the same
- hydroxyl radicals eliminated [5]: 47.2%
- ⋅ABTS+ eliminated (ABTS eliminating efficiency) [6]: 68.9%
